The target of this assay is T1, human PDE4B1 (Homo sapiens, UniProt Q07343).
T1 construct: host or cells: Sf9 cells
T1 sequence (Q07343 whole entry): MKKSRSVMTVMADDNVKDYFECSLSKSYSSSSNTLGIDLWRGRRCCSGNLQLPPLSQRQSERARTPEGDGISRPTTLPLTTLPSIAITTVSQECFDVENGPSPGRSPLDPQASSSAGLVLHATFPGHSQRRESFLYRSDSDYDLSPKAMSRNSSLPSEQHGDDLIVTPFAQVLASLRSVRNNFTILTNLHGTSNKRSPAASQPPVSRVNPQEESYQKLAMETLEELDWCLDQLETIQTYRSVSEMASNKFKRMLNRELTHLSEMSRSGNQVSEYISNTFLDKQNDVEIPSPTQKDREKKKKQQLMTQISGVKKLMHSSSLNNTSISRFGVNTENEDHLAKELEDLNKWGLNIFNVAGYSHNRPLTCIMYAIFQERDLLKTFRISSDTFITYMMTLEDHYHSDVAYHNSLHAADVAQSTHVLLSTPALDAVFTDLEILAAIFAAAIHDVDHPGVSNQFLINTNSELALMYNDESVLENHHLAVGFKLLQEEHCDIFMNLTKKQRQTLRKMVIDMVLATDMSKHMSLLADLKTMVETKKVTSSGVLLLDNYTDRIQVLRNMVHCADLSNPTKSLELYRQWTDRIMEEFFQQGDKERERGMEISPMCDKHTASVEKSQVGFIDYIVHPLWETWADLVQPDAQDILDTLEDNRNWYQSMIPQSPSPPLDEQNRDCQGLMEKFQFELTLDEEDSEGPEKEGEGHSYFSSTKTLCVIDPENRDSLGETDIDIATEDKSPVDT
Kind of assay: cAMP HTRF assay to determine the activity of hPDE4B1. The note with it: test substrate concentration of 1 μM, read-out: Inhibition of PDE4B, Inhibition in %. It is filed as biochemical. Here is the method: cAMP HTRF® Assay to Determine the Activity of hPDE4B1
The inhibiting effect of the compounds on the enzyme activity of human PDE4B1 was measured by the quantification of 5′-adenosine monophosphate (5′-AMP), which is formed from 3′,5′-cyclic adenosine monophosphate (cAMP). Human recombinant enzyme, expressed in Sf9 cells, and the HTRF (homogeneous time-resolved fluorescence) detection method were used in the assay.
The test compound or water (control) was mixed with the human recombinant PDE4B1 enzyme (4.8 U) in a buffer consisting of 44.4 mM tris-HCl, 5.28 mM MgCl2, 2.64 mM DTT and 0.044% Tween 20 (pH 7.8). After adding the cAMP enzyme substrate (final concentration 40 nM), the mixture was incubated for 30 minutes at room temperature. Then a fluorescence acceptor (Dye2 marked with cAMP), a fluorescence donor (anti-cAMP antibody marked with a europium cryptate) and the non-specific phosphodiesterase inhibitor IBMX (3-isobutyl-1-methylxanthine; final concentration 1 mM) were added. After 60 minutes the fluorescence transfer, which correlates with the amount of remaining cAMP, was measured with a microplate reader (Rubystar, BMG) at λex=337 nm, λem=620 nm and λem=665 nm. The enzyme activity was calculated from the quotient formed from the measured signal at 665 nm and that at 620 nm. The result was expressed as the percentage inhibition of enzyme activity of the control (without PDE4 inhibitor). The enzyme was omitted for measurement of the basal control. IC50 values (IC50=concentration causing a half-maximal inhibition of control specific activity) were derived from dose response measurements with eight different concentrations (n=2; N=1-3).
Literature: N. Saldou et al., Comparison of recombinant human PDE4 isoforms: interaction with substrate and inhibitors, Cell. Signal. Vol. 10, No. 6, 427-440, 1998
`Cc1nn(-c2ncc(-c3ccccc3F)cn2)c2cc(C(=O)N3CCOCC3)ccc12` [Compound No. 1, (1-(5-(2-Fluorophenyl)pyrimidin-2-yl)-3-methyl-1H-indazol-6-yl)(morpholino)methanone]: the inhibition at 1 µM was 99%.
With `O=C(c1ccc2c(C(F)(F)F)nn(-c3ncc(-c4ccccc4F)cn3)c2c1)N1CCOCC1` [Compound No. 2, (1-(5-(2-Fluorophenyl)pyrimidin-2-yl)-3-(trifluoromethyl)-1H-indazol-6-yl)(morpholino)methanone], the inhibition at 1 µM is 102%.
Consider `NC(=O)c1nn(-c2ncc(-c3ccccc3F)cn2)c2cc(C(=O)N3CCOCC3)ccc12` [Compound No. 3, 1-(5-(2-Fluorophenyl)pyrimidin-2-yl)-6-(morpholine-4-carbonyl)-1H-indazole-3-carboxamide], for which the inhibition at 1 µM is 83%.
For `O=C(c1ccc2c(C3CC3)nn(-c3ncc(-c4ccccc4F)cn3)c2c1)N1CCOCC1` [Compound No. 4, (3-Cyclopropyl-1-(5-(2-fluorophenyl)pyrimidin-2-yl)-1H-indazol-6-yl)(morpholino)methanone], the inhibition at 1 µM is 106%.
The figure for `CS(=O)(=O)c1nn(-c2ncc(-c3ccccc3F)cn2)c2cc(C(=O)N3CCOCC3)ccc12` [Compound No. 5, (1-(5-(2-Fluorophenyl)pyrimidin-2-yl)-3-(methylsulfonyl)-1H-indazol-6-yl)(morpholino)methanone] is 96%; for `C[S+]([O-])c1nn(-c2ncc(-c3ccccc3F)cn2)c2cc(C(=O)N3CCOCC3)ccc12` (centres unmarked) [Compound No. 6, (1-(5-(2-Fluorophenyl)pyrimidin-2-yl)-3-(methylsulfinyl)-1H-indazol-6-yl)(morpholino)methanone] it is 97%; for `C[S+]([O-])c1nn(-c2ncc(-c3ccccc3F)cn2)c2cc(C(=O)N3CCNCC3)ccc12` (centres unmarked) [Compound No. 8, (1-(5-(2-Fluorophenyl)pyrimidin-2-yl)-3-(methylsulfinyl)-1H-indazol-6-yl)(piperazin-1-yl)methanone] it is 64%.
The figure for `C[S+]([O-])c1nn(-c2ncc(-c3ccccc3)cn2)c2cc(C(=O)N3CCNCC3)ccc12` (centres unmarked) [Compound No. 9, (3-(Methylsulfinyl)-1-(5-phenylpyrimidin-2-yl)-1H-indazol-6-yl)(piperazin-1-yl)methanone] is 46%; for `C[S+]([O-])c1nn(-c2ncc(-c3ccccc3)cn2)c2cc(C(=O)N3CCOCC3)ccc12` (centres unmarked) [Compound No. 11, (3-(Methylsulfinyl)-1-(5-phenylpyrimidin-2-yl)-1H-indazol-6-yl)(morpholino)methanone] it is 115%.
For `CS(=O)(=O)c1nn(-c2ncc(-c3ccccc3)cn2)c2cc(C(=O)N3CCOCC3)ccc12` [Compound No. 12, (3-(Methylsulfonyl)-1-(5-phenylpyrimidin-2-yl)-1H-indazol-6-yl)(morpholino)methanone], the inhibition at 1 µM came out at 62%.
Turning to `C[S+]([O-])c1nn(-c2ncc(-c3ccccc3F)cn2)c2cc(C(=O)N3CC[C@@H](N)C3)ccc12` (stereo partly drawn) [Compound No. 13, ((R)-3-Aminopyrrolidin-1-yl)(1-(5-(2-fluorophenyl)pyrimidin-2-yl)-3-(methylsulfinyl)-1H-indazol-6-yl)methanone], the inhibition at 1 µM is 108%.
With `Cc1cccc(-c2cnc(-n3nc(C(C)O)c4ccc(C(=O)N5CCOCC5)cc43)nc2)c1` (centres unmarked) [Compound No. 18, (3-(1-Hydroxyethyl)-1-(5-(m-tolyl)pyrimidin-2-yl)-1H-indazol-6-yl)(morpholino)-methanone], the inhibition at 1 µM was determined as 96%.
The figure for `CC(O)c1nn(-c2ncc(-c3ccccc3)cn2)c2cc(C(=O)N3CCOCC3)ccc12` (centres unmarked) [Compound No. 19, (3-(1-Hydroxyethyl)-1-(5-phenylpyrimidin-2-yl)-1H-indazol-6-yl)(morpholino)methanone] is 112%; for `CC(O)c1nn(-c2ncc(-c3ccccc3F)cn2)c2cc(C(=O)N3CCOCC3)ccc12` (centres unmarked) [Compound No. 20, (1-(5-(2-Fluorophenyl)pyrimidin-2-yl)-3-(1-hydroxyethyl)-1H-indazol-6-yl)(morpholino)methanone] it is 102%; for `COc1ccc(F)c(-c2cnc(-n3nc(C(C)O)c4ccc(C(=O)N5CCOCC5)cc43)nc2)c1` (centres unmarked) [Compound No. 21, (1-(5-(2-Fluoro-5-methoxyphenyl)pyrimidin-2-yl)-3-(1-hydroxyethyl)-1H-indazol-6-yl)(morpholino)methanone] it is 112%.
The figure for `CC(O)c1nn(-c2ncc(-c3cc(C#N)ccc3F)cn2)c2cc(C(=O)N3CCOCC3)ccc12` (centres unmarked) [Compound No. 22, 4-Fluoro-3-(2-(3-(1-hydroxyethyl)-6-(morpholine-4-carbonyl)-1H-indazol-1-yl)pyrimidin-5-yl)benzonitrile] is 112%; for `Cc1cccc(-c2cnc(-n3nc([S+](C)[O-])c4ccc(C(=O)N5CCOCC5)cc43)nc2)c1` (centres unmarked) [Compound No. 23, (3-(Methylsulfinyl)-1-(5-(m-tolyl)pyrimidin-2-yl)-1H-indazol-6-yl)(morpholino)methanone] it is 101%; for `COc1ccc(F)c(-c2cnc(-n3nc([S+](C)[O-])c4ccc(C(=O)N5CCOCC5)cc43)nc2)c1` (centres unmarked) [Compound No. 24, (1-(5-(2-Fluoro-5-methoxyphenyl)pyrimidin-2-yl)-3-(methylsulfinyl)-1H-indazol-6-yl)(morpholino)methanone] it is 100%.
The figure for `C[S+]([O-])c1nn(-c2ncc(-c3cc(C#N)ccc3F)cn2)c2cc(C(=O)N3CCOCC3)ccc12` (centres unmarked) [Compound No. 25, 4-Fluoro-3-(2-(3-(methylsulfinyl)-6-(morpholine-4-carbonyl)-1H-indazol-1-yl)pyrimidin-5-yl)benzonitrile] is 85%.
Turning to `Cc1cccc(-c2cnc(-n3nc(S(C)(=O)=O)c4ccc(C(=O)N5CCOCC5)cc43)nc2)c1` [Compound No. 26, (3-(Methylsulfonyl)-1-(5-(m-tolyl)pyrimidin-2-yl)-1H-indazol-6-yl)(morpholino)methanone], the inhibition at 1 µM was determined as 91%.
The figure for `COc1ccc(F)c(-c2cnc(-n3nc(S(C)(=O)=O)c4ccc(C(=O)N5CCOCC5)cc43)nc2)c1` [Compound No. 27, (1-(5-(2-Fluoro-5-methoxyphenyl)pyrimidin-2-yl)-3-(methylsulfonyl)-1H-indazol-6-yl)(morpholino)methanone] is 85%.
Regarding `CS(=O)(=O)c1nn(-c2ncc(-c3cc(C#N)ccc3F)cn2)c2cc(C(=O)N3CCOCC3)ccc12` [Compound No. 28, 4-Fluoro-3-(2-(3-(methylsulfonyl)-6-(morpholine-4-carbonyl)-1H-indazol-1-yl)pyrimidin-5-yl)benzonitrile], the inhibition at 1 µM came to 86%.
The figure for `O=C(c1cc2c(cn1)c(C1CC1)nn2-c1ncc(-c2ccccc2F)cn1)N1CCC1` [compound 35, Azetidin-1-yl(3-cyclopropyl-1-(5-(2-fluorophenyl)pyrimidin-2-yl)-1H-pyrazolo[4,3-c]pyridin-6-yl)methanone] is 59%.
Regarding `O=C(NC1CC1)c1cc2c(cn1)c(C1CC1)nn2-c1ncc(-c2ccccc2F)cn1` [compound 36, N,3-Dicyclopropyl-1-(5-(2-fluorophenyl)pyrimidin-2-yl)-1H-pyrazolo[4,3-c]pyridine-6-carboxamide], the inhibition at 1 µM amounted to 81%.
On to `CCN(C)C(=O)c1cc2c(cn1)c(C1CC1)nn2-c1ncc(-c2ccccc2F)cn1` [compound 37, 3-Cyclopropyl-N-ethyl-1-(5-(2-fluorophenyl)pyrimidin-2-yl)-N-methyl-1H-pyrazolo[4,3-c]pyridine-6-carboxamide], for which the inhibition at 1 µM amounted to 73%.
The figure for `O=C(c1cc2c(cn1)c(C1CC1)nn2-c1ncc(-c2ccccc2F)cn1)N1CCCC1` [compound 38, (3-Cyclopropyl-1-(5-(2-fluorophenyl)pyrimidin-2-yl)-1H-pyrazolo[4,3-c]pyridin-6-yl)(pyrrolidin-1-yl)methanone] is 85%; for `CCN(CC)C(=O)c1cc2c(cn1)c(C1CC1)nn2-c1ncc(-c2ccccc2F)cn1` [compound 39, 3-Cyclopropyl-N,N-diethyl-1-(5-(2-fluorophenyl)pyrimidin-2-yl)-1H-pyrazolo[4,3-c]pyridine-6-carboxamide] it is 67%.
The figure for `CN(CCO)C(=O)c1cc2c(cn1)c(C1CC1)nn2-c1ncc(-c2ccccc2F)cn1` [compound 40, 3-Cyclopropyl-1-(5-(2-fluorophenyl)pyrimidin-2-yl)-N-(2-hydroxyethyl)-N-methyl-1H-pyrazolo[4,3-c]pyridine-6-carboxamide] is 40%.
The figure for `COCCNC(=O)c1cc2c(cn1)c(C1CC1)nn2-c1ncc(-c2ccccc2F)cn1` [compound 41, 3-Cyclopropyl-1-(5-(2-fluorophenyl)pyrimidin-2-yl)-N-(2-methoxyethyl)-1H-pyrazolo[4,3-c]pyridine-6-carboxamide] is 69%.

For the origin of these results see US9546158B2, “2,5-substituted pyrimidines” (Grünenthal GmbH, priority 2014, dated 2017).
